# From PMC6199744, “Development of Chemical Proteomics for the Folateome and Analysis of the Kinetoplastid Folateome” (ACS Infectious Diseases, 2018)
# Values joined by “and” are separate entries in the source; they are usually repeats but may differ in a detail not shown here. Equal entries are not always repeated. Where two headings read alike, the source gives them in different places.
# System: L. major lysate proteins
# Assay: Multitargeted bead mixture chemoproteomics, single concentration competition, proteome-wide
# Type: binding
# Details: for fold change / fold change relative to vehicle control: vehicle control = 1; for fold change relative to vehicle control: competition with free ligand
structure (smiles),measurement,setting,value
CCCCCCOc1cccc(Cc2cnc(N)nc2N)c1 [compound 2],fold change vs vehicle control,,1.17 and 1.18 and 1.07 and 1.04
same,fold change,LINJ.05.0500 ATPASE ALPHA SUBUNIT,1.11
same,fold change,LINJ.36.4570 PROTEASOME REGULATORY ATPASE SUBUNIT,0.65
same,fold change,"LMJF.10.0510 GLYCEROL-3-PHOSPHATE DEH[…] ], GLYCOSOMAL",1.02
same,fold change,LMJF.16.1610 PROHIBITIN,1.14
same,fold change,"LMJF.18.1370 HEAT SHOCK PROTEIN, PUTATIVE",1.03
same,fold change,"LMJF.19.0300 RNA BINDING PROTEIN, PUTATIVE",0.93
same,fold change,"LMJF.21.0760 […]-ATP-ASE SUBUNIT 5, PUTATIVE",0.91
same,fold change,"LMJF.22.0410 HY[…], CONSERVED",0.85
same,fold change,"LMJF.25.1770 ENOYL-COA REDUCTASE, PUTATIVE",1.1
same,fold change,LMJF.26.0300 AMINOPEPTIDASE-LIKE PROTEIN,0.85
same,fold change,"LMJF.26.2560 HY[…], CONSERVED",1.08
same,fold change,"LMJF.27.1810 GLYCOSOMAL PHOSPHOENOLPYRUVATE CARBOXYKINASE, PUTATIVE",1.17
same,fold change,"LMJF.28.0490 PROPIONYL-COA CARBOXYLASE BETA CHAIN, PUTATIVE",0.63
same,fold change,"LMJF.29.0940 HY[…], CONSERVED",1.21
same,fold change,"LMJF.29.1310 CARNITINE/CHOLINE ACETYLTRANSFERASE, PUTATIVE",1.04
same,fold change,"LMJF.29.1470 HY[…], CONSERVED",1.11
same,fold change,"LMJF.29.2440 HYPOTHETICAL PROTEIN, CONSERVED",1
same,fold change,LMJF.30.2350 SPHINGOSINE 1-PHOSPHATE LYASE,1.12
same,fold change,"LMJF.30.2970 GLYCERALDEHYDE 3-PHOSPHATE DEHYDROGENASE, GLYCOSOMAL",1.11
same,fold change,"LMJF.30.3390 CAS/CSE/IMPORTIN DOMAIN PROTEIN, PUTATIVE",0.9
same,fold change,LMJF.31.2650 ACETOIN DEHYDROGENASE E3 COMPONENT-LIKE PROTEIN,1.02
same,fold change,"LMJF.31.2970 ACETYL-COA CARBOXYLASE, PUTATIVE",0.91
same,fold change,"LMJF.33.1030 HYPOTHETICAL PROTEIN, CONSERVED",0.95
same,fold change,LMJF.35.5040 polyadenylate-binding protein 1,1.22
same,fold change,"LMJF.35.5250 ALPHA-1,2-MANNOSYLTRANSFERASE, PUTATIVE",0.99
same,fold change,"LMJF.36.5100 HY[…], CONSERVED",1.03
same,fold change,"LMJF.[…] RIBOSOMAL PROTEIN S7, PUTATIVE",1.35
same,fold change vs vehicle control,"protein LINJ.03.0940 HY[…], CONSERVED",1.19
same,fold change vs vehicle control,"protein LINJ.09.0030 HYPOTHETICAL PROTEIN, CONSERVED",0.91
same,fold change relative to vehicle control,"protein LINJ.11.0780 40S RIBOSOMAL PROTEIN S21, PUTATIVE",1.25
same,fold change,"protein LINJ.13.0990 […] SUBUNIT 2, PUTATIVE",1.04
same,fold change vs vehicle control,protein LINJ.13.1460 ALPHA TUBULIN,1.06
same,fold change,"protein LINJ.15.0090 HEAT SHOCK PROTEIN HSLVU, ATPASE SUBUNIT HSLU, PUTATIVE",1.01
same,fold change relative to vehicle control,"protein LINJ.16.1380 CYTOCHROME C, PUTATIVE",1.41
same,fold change vs vehicle control,protein LINJ.19.0300 RNA BINDING PROTEIN,1.2
same,fold change,"protein LINJ.20.0630 CYTIDINE TR[…], PUTATIVE",1.24
same,fold change relative to vehicle control,"protein LINJ.20.1390 COATOMER BETA SUBUNIT, PUTATIVE",1.31
same,fold change vs vehicle control,"protein LINJ.21.1310 40S RIBOSOMAL PROTEIN S23, PUTATIVE",1.12
same,fold change vs vehicle control,"protein LINJ.23.1680 HY[…], CONSERVED",1.11
same,fold change vs vehicle control,"protein LINJ.25.1170 […] OXIDASE VII, PUTATIVE",1.03
same,fold change relative to vehicle control,protein LINJ.25.1220 RIBOSOMAL PROTEIN S25,1.24
same,fold change vs vehicle control,"protein LINJ.26.1080 HY[…], CONSERVED",1.11
same,fold change vs vehicle control,"protein LINJ.27.1140 HY[…], CONSERVED",1.05
same,fold change vs vehicle control,"protein LINJ.28.1100 RIBOSOMAL PROTEIN S20, PUTATIVE",1.04
same,fold change relative to vehicle control,"protein LINJ.28.1940 REPLICATION FACTOR A, 51KDA SUBUNIT, PUTATIVE",1.28
same,fold change,"protein LINJ.31.2350 ADP-RI[…], PUTATIVE",1.11
same,fold change vs vehicle control,"protein LINJ.34.0670 […]-ATP-ASE SUBUNIT 11, PUTATIVE",1.17
same,fold change,"protein LINJ.35.0410 40S RIBOSOMAL PROTEIN S3A, PUTATIVE",1.2
same,fold change relative to vehicle control,"protein LINJ.35.0780 CBS DOMAIN PROTEIN, CONSERVED",0.96
same,fold change vs vehicle control,"protein LINJ.36.0510 HY[…], CONSERVED",1.08
same,fold change vs vehicle control,"protein LINJ.36.3940 40S RIBOSOMAL PROTEIN S27-1, PUTATIVE",0.95
same,fold change,protein LINJ.36.4180 HS1VU COMPLEX PROTEOLYTIC SUBUNIT-LIKE,0.97
same,fold change,protein LINJ.36.7350 […] OXIDASE SUBUNIT I,1.03
same,fold change,"protein LMJF.01.0520 LONG-CHAIN-FATTY-ACID-COA LIGASE, PUTATIVE",0.98
same,fold change vs vehicle control,"protein LMJF.02.0460 HY[…], CONSERVED",1.06
same,fold change vs vehicle control,"protein LMJF.03.0230 LONG CHAIN FATTY ACYL COA SYNTHETASE, PUTATIVE",1.18
same,fold change vs vehicle control,"protein LMJF.03.0630 HYPOTHETICAL PROTEIN, CONSERVED",1
same,fold change,"protein LMJF.05.0780 HY[…], CONSERVED",1.13
same,fold change,protein LMJF.06.0010 HISTONE H4,1.16
same,fold change,"protein LMJF.06.0140 PROTEASOME BETA 6 SUBUNIT, PUTATIVE",0.93
same,fold change,"protein LMJF.06.0650 […], PUTATIVE",1.08
same,fold change vs vehicle control,"protein LMJF.08.0510 RIBOSE-PHOSPHATE PYROPHOSPHOKINASE, PUTATIVE",1.01
same,fold change vs vehicle control,protein LMJF.08.0550 TRANSLATION INITIATION FACTOR-LIKE PROTEIN,1.1
same,fold change vs vehicle control,"protein LMJF.08.1100 HY[…], CONSERVED",1.08
same,fold change relative to vehicle control,"protein LMJF.09.1120 MITOCHONDRIAL RNA BINDING PROTEIN 2,MRP2, GBP25",1
same,fold change vs vehicle control,"protein LMJF.09.1260 HY[…], CONSERVED",1.11
same,fold change,protein LMJF.10.1010 NUCLEOSIDE PHOSPHORYLASE-LIKE PROTEIN,0.94
same,fold change,"protein LMJF.10.1240 HYPOTHETICAL PROTEIN, CONSERVED",0.79
same,fold change vs vehicle control,protein LMJF.11.0130 NGG1 I[…] 3-LIKE PROTEIN,1.06
same,fold change vs vehicle control,"protein LMJF.11.0240 […] 7 SUBUNIT, PUTATIVE",1.02
same,fold change,"protein LMJF.11.1050 PRETRA[…], ALPHA SUBUNIT, PUTATIVE",1.27
same,fold change vs vehicle control,"protein LMJF.11.1110 60S RIBOSOMAL PROTEIN L28, PUTATIVE",1.71
same,fold change vs vehicle control,"protein LMJF.12.0210 […] […]1L8 3, PUTATIVE",0.96
same,fold change vs vehicle control,"protein LMJF.12.0280 ORNITHINE DECARBOXYLASE, PUTATIVE",0.92
same,fold change vs vehicle control,"protein LMJF.13.0450 HYPOTHETICAL PROTEIN, CONSERVED",0.94
same,fold change vs vehicle control,"protein LMJF.13.0870 MIT[…] ALPHA SUBUNIT, PUTATIVE",1.12
same,fold change vs vehicle control,"protein LMJF.14.0130 INOSINE-GUANINE NUCLEOSIDE HYDROLASE, PUTATIVE",1
same,fold change,"protein LMJF.14.0310 PROTEASOME ALPHA 3 SUBUNIT, PUTATIVE",0.96
same,fold change,"protein LMJF.14.0650 FATTY ACID ELONGASE, PUTATIVE",1.09
same,fold change,"protein LMJF.14.0660 FATTY ACID ELONGASE, PUTATIVE",1.14
same,fold change,"protein LMJF.14.0705 FATTY ACID ELONGASE, PUTATIVE",0.94
same,fold change,"protein LMJF.14.0740 FATTY ACID ELONGASE, PUTATIVE",1.13
same,fold change relative to vehicle control,"protein LMJF.14.1120 KINESIN K39, PUTATIVE",1.12
same,fold change vs vehicle control,"protein LMJF.15.0230 LYSYL-TRNA SYNTHETASE, PUTATIVE",1.06
same,fold change vs vehicle control,"protein LMJF.15.0280 RIBONUCLEOPROTEIN P18, MIT[…], PUTATIVE",1.12
same,fold change,protein LMJF.15.1010 GLUTAMATE DEHYDROGENASE,1.12
same,fold change relative to vehicle control,"protein LMJF.16.0520 HYPOTHETICAL PROTEIN, CONSERVED",2.05
same,fold change,"protein LMJF.16.0540 ASPARTATE […], PUTATIVE",1.05
same,fold change vs vehicle control,protein LMJF.16.0950 SUCROSE-PHOSPHATE SYNTHASE-LIKE PROTEIN,1.27
same,fold change vs vehicle control,"protein LMJF.16.0960 HYPOTHETICAL PROTEIN, CONSERVED",0.64
same,fold change,protein LMJF.16.1180 COATOMER DELTA SUBUNIT-LIKE PROTEIN,1.05
same,fold change,"protein LMJF.17.0010 HYPOTHETICAL PROTEIN, CONSERVED",0.79
same,fold change vs vehicle control,"protein LMJF.18.0510 ACONITASE, PUTATIVE",1.1
same,fold change vs vehicle control,"protein LMJF.18.0890 RAB7 GTP BINDING PROTEIN, PUTATIVE",0.93
same,fold change,"protein LMJF.18.1130 RAS-RELATED PROTEIN RAB-5, PUTATIVE",0.97
same,fold change,"protein LMJF.19.1120 […]-ATP-ASE SUBUNIT, PUTATIVE",1.02
same,fold change vs vehicle control,"protein LMJF.19.1160 HY[…], CONSERVED",1.14
same,fold change vs vehicle control,protein LMJF.19.1530 PEPT[…]-LIKE PROTEIN,1.05
same,fold change,"protein LMJF.20.0100 PHOSPH[…] C, GLYCOSOMAL",1.08
same,fold change vs vehicle control,"protein LMJF.21.0720 HY[…], CONSERVED",1.29
same,fold change,"protein LMJF.21.1250 ADENYLATE KINASE, PUTATIVE",0.9
same,fold change,"protein LMJF.21.1555 HY[…], CONSERVED",1.14
same,fold change,"protein LMJF.21.1580 HY[…], UNKNOWN FUNCTION",1.22
same,fold change vs vehicle control,"protein LMJF.21.1700 […] 2 SUBUNIT, PUTATIVE",1.01
same,fold change,"protein LMJF.22.0230 AMINO ACID PERMEASE, PUTATIVE",1.51
same,fold change,"protein LMJF.22.0570 PROTEASOME REGULATORY ATPASE SUBUNIT 1, PUTATIVE",1.1
